The record followed here is publication PMC7291858, “An Enhanced Variant Designed From DLP4 Cationic Peptide Against Staphylococcus aureus CVCC 546” (Frontiers in Microbiology, 2020).

≈ marks a conversion by molar mass, not a printed value. Peptide text beside a SMILES is read from it.

For test [1], the system named is S. aureus ATCC 43300. The class given is cell-based, Staphylococcus aureus. Particulars: microtiter, serial 2-fold dilutions, 37°C, 16∼20 h, triplicate; – = no activity. A digest of the protocol:
(§1)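 Each strain was exposed to two-fold serial dilutions of peptide in a plate assay. After incubation for 16∼20 h at 37°C, wells were scored for growth, and the MIC was recorded as the lowest concentration lacking visible growth.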

Test [2] deals with Staphylococcus aureus CVCC 546. As to the kind of experiment: microbe, parasite or virus in culture. Format: cell-based. A digest of the protocol: as §1
The test system of test [3] is S. epidermidis ATCC 12228. As to the kind of experiment: MIC, microtiter plate assay. The note with it: 37°C, 16∼20 h, triplicate. The class given is cell-based, Staphylococcus epidermidis. As for the experimental part: (§2) The minimal inhibitory concentration (MIC) was evaluated by a microtiter plate assay ([Wiegand et al., 2008]). Serial 2-fold dilutions of test peptides were placed into a 96-well plate containing identical bacterial inoculum and incubated at 37°C for 16∼20 h. Vancomycin was used as antibiotic control. The MIC value was defined as the lowest peptide concentration where no visible growth occurred. All tests were made in triplicate.

The subject of test [4] is S. suis CVCC 3928. Put plainly: MIC, microtiter plate assay. The class given is cell-based, Streptococcus suis. The note with it: 37°C, 16∼20 h, triplicate. As for the experimental part: as §2
Test [5] relates to Escherichia coli ATCC 25922. Put plainly: MIC, microtiter plate assay. The class given is cell-based. Particulars: 37°C, 16∼20 h, triplicate. As for the experimental part: as §2
In test [6] the test system is Salmonella pullorum CVCC 533. Put plainly: MIC, microtiter plate assay. Particulars: 37°C, 16∼20 h, triplicate. The class given is cell-based. As for the experimental part:
as §2

Test [7] has as its system Streptococcus pneumoniae CVCC 2350. Put plainly: MIC, microtiter plate assay. The class given is cell-based. Particulars: 37°C, 16∼20 h, triplicate. As for the experimental part: as §2
Test [8] concerns E. coli K88. As to the kind of experiment: MIC, microtiter plate assay. The class given is cell-based, Escherichia coli. Particulars: 37°C, 16∼20 h, triplicate. On the procedure:
as §2

Test [9] deals with S. enteritidis CVCC 3377. As to the kind of experiment: MIC, microtiter plate assay. The class given is cell-based, Salmonella enteritidis. The note with it: 37°C, 16∼20 h, triplicate. As for the experimental part:
as §2

Test [10] concerns S. aureus CVCC 546. Put plainly: Membrane permeabilization, PI flow cytometry. The class given is cell-based, Staphylococcus aureus. The note with it: 0.5 h, 10^8 CFU/mL, n = 3. As for the experimental part: The effects of peptides on membrane permeabilization were measured by flow cytometry ([Zhu et al., 2018]). […] Cells untreated and treated with 2 × MIC DLP4 or vancomycin were used as blank and positive controls. The fluorescence of the dye was monitored at an excitation wavelength of 488 nm and an emission wavelength of 635 nm.
(A flow cytometer gives signals particle by particle.)

The subject of test [11] is S. aureus CVCC 546. As to the kind of experiment: Potassium ion (K+) leakage. Format: cell-based, Staphylococcus aureus. The note with it: 1 × MIC, treated for 150 min, 0.9% saline, 10^8 CFU/mL, ICP, n = 3. On the procedure: To further investigate the effects of peptides on membrane integrity, K^+ leakage determination was carried out as previously described ([Miao et al., 2016]). Briefly, S. aureus CVCC 546 cells were centrifuged, washed, and resuspended in 0.9% sterile saline. The cell suspension (10^8 CFU/mL) was treated with peptides at 1 × MIC. Cells untreated and treated with DLP4 or nisin were used as blank and positive controls. At time intervals of 30, 60, 90, 120, and 150 min, the suspensions were centrifuged at 12000 rpm for 5 min. The supernatants were then subjected to measurement by Agilent inductively coupled plasma optical emission (ICP-OES).

The test system of test [12] is S. aureus CVCC 546 gDNA. As to the kind of experiment: Gel retardation assay of gDNA binding. Details: species or system Staphylococcus aureus. The note with it: 10 min incubation, 1% agarose gel, ratios 0-5 (w/w). As for the experimental part: A gel retardation assay ([Zhao et al., 2019]) was utilized to analyze the binding of peptides to genomic DNA (gDNA) extracted from S. aureus CVCC 546 with TIANamp Bacteria DNA Kit (TIANGEN Biotech Co., Ltd., Beijing). The peptides were incubated for 10 min with gDNA at different ratios of 0–5.0 (w/w) and then loaded on 1% agarose gel for electrophoresis analysis.

Test [13] has as its system S. aureus CVCC 546. Put plainly: Post-antibiotic effect (PAE). The note with it: 2 × MIC, 2 h exposure, mean ± SD, n = 3. The class given is cell-based, Staphylococcus aureus. As for the experimental part: The PAE was determined by exposing S. aureus cells to antimicrobial agent at 1×, 2×, or 4 × MIC for 2 h. After drug removal by dilution, the bacterial culture was incubated at 37°C and 250 rpm. An aliquot of samples (50 μL) were taken for CFU counts at different time intervals until bacterial cultures became turbid. Bacteria treated with DLP4 or vancomycin and left without treatment were used as the positive and blank controls, respectively. The PAE was calculated using the following formula: PAE = T − C, where T is the time for the CFU counts to increase by 10-fold above the count observed immediately after drug removal, and C is the corresponding time for the untreated control ([Oh et al., 2019]).

Test [14] deals with S. aureus CVCC 546. Put plainly: Mouse thigh infection model, CFU in thigh muscle. Format: in vivo, mouse (female CD-1). Particulars: 10 mg/kg single i.p. dose 2 h post-infection, read 24 h post-infection, n = 6. On the procedure: (§3) Mouse experiments were carried out at Gene Engineering Laboratory, Feed Research Institute of Chinese Academy of Agricultural Sciences (CAAS) and complied with institutional animal care and use policies and procedures (AEC-CAAS-20090609). All animal studies were performed with female CD-1 mice, 6∼7 weeks old.
(§4) S. aureus CVCC 546 in the exponential phase were resuspended in MHB and adjusted to 1 × 10^8 CFU/mL, a 0.1-mL inoculum was injected into the right thighs of mice. At 2 h post-infection, mice (n = 6) were administered intraperitoneally (i.p.) with peptides at 2.5, 5, or 10 mg/kg. Mice raised without any treatment, or treated with PBS, 10 mg/kg DLP4, or vancomycin were used as the blank and negative and positive controls, respectively. At 24 h post-infection, peripheral blood was collected and serum was separated for cytokine levels analysis by using enzyme-linked immunosorbent assay (ELISA) kit (R&D systems, United States). Mice were euthanized, the right thighs were aseptically removed and processed for colonies counting ([Ling et al., 2015]).

Test [15] relates to IL-10. As to the kind of experiment: Mouse thigh infection model, serum cytokine ELISA. Particulars: 10 mg/kg i.p., serum 24 h post-infection. The class given is in vivo, mouse (female CD-1). On the procedure: as §3, §4
On the technique in general: An ELISA detects its analyte on a solid surface through an enzyme-linked reagent.

The subject of test [16] is IL-6. As to the kind of experiment: Mouse thigh infection model, serum cytokine ELISA. Format: in vivo, mouse (female CD-1). The note with it: 10 mg/kg i.p., serum 24 h post-infection. As for the experimental part:
as §3, §4

The subject of test [17] is TNF-α. As to the kind of experiment: Mouse thigh infection model, serum cytokine ELISA. Particulars: 10 mg/kg i.p., serum 24 h post-infection. Format: in vivo, mouse (female CD-1). As for the experimental part:
as §3, §4

In test [18] the test system is Gram-negative bacteria. As to the kind of experiment: MIC, summary over Gram-negative strains. The class given is cell-based. Particulars: E. coli and Salmonella strains of Table 2. On the procedure:
as §2

In the case of `CC[C@H](C)[C@@H]1NC(=O)[C@@H]2CSSC[C@@H](C(=O)N[C@@H](CCCNC(=N)N)C(=O)N[C@@H](CCCCN)C(=O)O)NC(=O)[C@H](CC(N)=O)NC(=O)[C@@H]3CSSC[C@H](NC(=O)[C@H](C)NC(=O)[C@H](C)NC(=O)[C@H](Cc4c[nH]cn4)NC(=O)CNC(=O)[C@H](C(C)C)NC(=O)[C@H](CCCCN)NC(=O)[C@H](Cc4ccccc4)NC(=O)[C@@H]4CCCN4C(=O)[C@H](CO)NC(=O)[C@H](CC(C)C)NC(=O)[C@H](CC(C)C)NC(=O)[C@H](CC(=O)O)NC(=O)[C@@H](NC(=O)[C@@H](NC(=O)[C@H](C)N)[C@@H](C)O)CSSC[C@H](NC(=O)[C@H](Cc4c[nH]c5ccccc45)NC(=O)CNC(=O)CNC(=O)[C@H](CCCNC(=N)N)NC(=O)[C@H](CCCCN)NC(=O)CNC(=O)[C@H](CCCNC(=N)N)NC(=O)[C@H](C)NC1=O)C(=O)N[C@@H](CC(=O)O)C(=O)NCC(=O)N[C@@H](CCCNC(=N)N)C(=O)N[C@@H](C)C(=O)N[C@@H](C(C)C)C(=O)N3)C(=O)N[C@@H](C)C(=O)N[C@@H](C)C(=O)N[C@@H](Cc1c[nH]cn1)C(=O)N2` [ID13] (HELM PEPTIDE1{A.T.C.D.L.L.S.P.F.K.V.G.H.A.A.C.A.A.H.C.I.A.R.G.K.R.G.G.W.C.D.G.R.A.V.C.N.C.R.K}$PEPTIDE1,PEPTIDE1,3:R3-30:R3|PEPTIDE1,PEPTIDE1,16:R3-36:R3|PEPTIDE1,PEPTIDE1,20:R3-38:R3$$$V2.0; N-terminus and C-terminus assumed), the “A1 (MIC against S. aureus ATCC 43300)” value in [1] amounted to 4 µg/mL. The MIC in [2] (Table 1, – = no activity) is 4; in test [2] (microtiter, 37°C, 16∼20 h, triplicate), 0.95 µM (≈ 3.99 µg/mL); in [3], 1.91 µM (≈ 8.02 µg/mL); in test [4], 0.95 µM (≈ 3.99 µg/mL); in test [5], >30.50 µM; in test [6] it was >30.50 µM. In addition, the values for the MIC in test [7], in [8] and in [9] were 0.95 µM (≈ 3.99 µg/mL), >30.50 µM and >30.50 µM, respectively. Besides, the “percentage of PI-positive cells” value in test [10] (1 × MIC) is 47.2%; in test [10] (2 × MIC), 48.2%; in test [10] (4 × MIC), 52.8%. In test [11], the “level of released K+” value amounted to 0.81 mg/L. Besides, in test [12], the “peptide/gDNA mass ratio at which gDNA was completely blocked” value was determined as 5. The “peptide/gDNA mass ratio at which migration of gDNA began to be retarded” value in test [12] is recorded as 1. Further, in [13], the PAE amounted to 12.78 ± 0.28 h. Also, in test [14], the “reduction of S. aureus in infected thigh muscles” value was 1.8 log10 (CFU/g). Moreover, in test [15], the “downregulation of serum level of IL-10” value is 37.66 pg/mL. Besides, the “downregulation of serum level of IL-6” value in [16] turned out to be 750.02 pg/mL. Also, the “downregulation of serum level of TNF-α” value in test [17] was 1123.30 pg/mL. Also, in test [18], the “activity against Gram-negative bacteria” value is listed as “no activity”.
